Experimental data published in patent publication US8524703B2, “Bridgehead amine ring-fused indoles and indolines” (AbbVie Inc., priority 2009, dated 2013).
Entries after “also recorded” stand apart in the source; their conditions may differ.

Experiments:
[1] = test system: SK-N-SH human neuroblastoma cells; experiment: Serum Deprivation/JC-1 Mitochondrial Membrane Potential (MMP) Assay; format: cell-based; conditions: for Emax: read-out: JC-1 max %; for EC50: serum deprivation ~18 hours, JC-1 ratio normalized to peak value for 10 μM dimebolin
Method: Tissue Culture: SK-N-SH human neuroblastoma cells obtained from American Type Culture Collection (Rockville, Md.) were maintained in the log phase of growth in Minimal Essential Media (MEM), 10% heat inactivated fetal calf serum and 100 units/mL antibiotic-antimycotic (AA). Cells were cultured and maintained in a humidified incubator at 37° C. under 5% CO2 and 95% air. Cells were trypsinized (0.25%) and subcultured every 3 days and used from 15-18 passages. All cell culture supplies were obtained from Invitrogen (Carlsbad, Calif.).
Serum Deprivation/JC-1 Mitochondrial Membrane Potential (MMP) Assay.
SK-N-SH cells were plated 2-3 days in advance at a concentration of 50,000 cells/well onto collagen coated black-walled 96 well plates (Becton-Dickinson, Bedford, Mass.) in a total volume of 200 μL. On day of experimental treatment, the media containing serum was aspirated from each well and rinsed once with MEM/1% AA without serum. The cells then were incubated overnight in 100 μL of MEM/1% AA (no serum) with and without dimebolin or novel chemical entities overnight for ˜18 hours. The following day, JC-1 dye (5,5′,6,6′-tetrachloro-1,1′,3,3′-tetraethylbenzimidazolcarbocyanide) was diluted 1:10 into MEM media according to the JC-1 Mitochondrial Membrane Potential Assay Kit: (Cayman Chemical Company, Ann Arbor, Mich.) and then 10 μL of the JC-1 dye solution was added to each well. The plates were centrifuged for 5 minutes at 400×g at room temperature followed by 40 minute incubation at 37° C. The plates were washed twice with 200 μL of provided Assay Buffer followed an addition of 100 μL of Assay Buffer to each well. The plates were read with an excitation and emission of 560 nm and 595 nM for red fluorescence and with an excitation and emission of […] and 535 nM for green fluorescence to determine the final JC-1 value taking the red to green fluorescence ratio. This assay is based on change in mitochondrial membrane potential (MMP) using this lipophilic cationic dye, JC-1, by monitoring the changes in the ratio of red to green fluorescence as the MMP depolarizes. This change in MMP reflects the health of the cell with healthy, viable cells have a high JC-1 ratio and high MMP whereas apoptotic, unhealthy cells have a low JC-1 ratio or low MMP.
For the ability of compounds to reverse the stress due to serum deprivation and increase the JC-1 ratio, the percent maximal intensity in JC-1 ratio was normalized to that induced by the peak value for 10 μM dimebolin and plotted against the compound concentration to calculate EC50 values and to control for plate-to-plate variability. Concentration-response data were analyzed using GraphPad Prism (San Diego, Calif.); the EC50 values were derived from a single curve fit to the mean data of n=2-3, in duplicates.
All compounds were dissolved in dimethyl sulfoxide at 10 mM stock solutions and tested at a concentration that the dimethyl sulfoxide levels never exceeded 1%.

mice = experiment: Inhibitory Avoidance in Mouse (24-hour recall); format: in vivo; conditions: 24 hours after initial exposure, 0.001, 0.01, 0.1, and 1.0 mg/kg i.p., versus control
Method: Inhibitory Avoidance in Mouse: The inhibitory avoidance task involves the uses of a two-compartment step through apparatus (Ugo Basile, Collegeville, Pa.) that measures the animal's ability to remember a brief noxious stimulus (foot shock), and is considered a measure of trial learning, and memory consolidation. Briefly, 30 minutes after dosing, mice were placed in a lighted compartment of the apparatus where the latency to enter into the preferred dark compartment is recorded. Entry into a dark compartment results in the immediate delivery of a mild foot shock (0.2 mA, 1-second duration). Retention testing is conducted 24 hours later with the animal again placed in the lighted compartment where its latency to reenter the dark side of the apparatus is measured (no shock). Increasing retention latency is regarded as an index of memory consolidation (Bitner, R. S.; Bunnelle, W. H.; et al. Broad-spectrum efficacy across cognitive domains by α7 nicotinic acetylcholine receptor agonism correlates with activation of ERK1/2 and CREB phosphorylation pathways. J. Neurosci. 2007, 27 (39), 10578-10587.). […] (*p<0.05; **p<0.01, ***p<0.001 versus control)

[2] = test system: primary postnatal (P0) cortical cells; experiment: Neurite Outgrowth Assay (neuroprotection against Aβ1-42-induced reduction of neurite outgrowth); format: cell-based, rat; conditions: for % Attenuation Effect of 5 μM Aβ 1-42: 5 μM Aβ1-42, 3 days, compound pretreatment about 5 hours; for Emax at 3 µM / Emax at 0.3 µM: Rattus norvegicus, relative to 300 nM dimebolin, read-out: Maximum Effect (of % 300 nM Dimebolin) at Concentration; for Emax at 3 µM: maximum response at 3000 nM test compound; for Emax at 0.3 µM: maximum response at 300 nM test compound
Method: In addition to PC12 cells, other cellular model systems may also be used. Rat cortical cells can be cultured and prepared for high content microscopy analysis as previously described (Hu, M.; Schurdak, M. E.; et al. High content screen microscopy analysis of Aβ1-42-induced neurite outgrowth reduction in rat primary cortical neurons: Neuroprotective effects of α7 neuronal nicotinic acetylcholine receptor ligands. Brain Res. 2007, 1151, 227-235.). Briefly, cortical cell cultures are plated at density of 5×10^5 cells/mL onto poly-D-lysine coated 96-well plates and maintained in a cell incubator at 37° C. with 5% CO2. Experiments are performed using 6-7 day-old cortical cell cultures by treating with test compounds. In some experiments, the effect of test compounds on reversing Aβ toxicity can also be measured (Hu, M.; Schurdak, M. E.; et al. High content screen microscopy analysis of Aβ1-42-induced neurite outgrowth reduction in rat primary cortical neurons: Neuroprotective effects of α7 neuronal nicotinic acetylcholine receptor ligands. Brain Res. 2007, 1151, 227-235.). For assessment of neuroprotective effects, cells are first pretreated with test compounds for about 5 hours. Medium is then replaced with the medium containing freshly prepared about 5 μM Aβ1-42 peptide in the absence or presence of the test compounds for 3 days. The untreated group contains the same percentage of vehicle (DMSO) as in the treatment groups. Cells are fixed with approximately 4% paraformaldehyde containing 0.5% Hoechst 33342 for about 15 minutes, followed by three washes using PBS (pH 7.4) and blocked with 10% donkey serum in PBS for 1 hour at room temperature. The cells are then incubated overnight at about 4° C. with mouse anti-tubulin monoclonal antibody (1:100) for staining neurons and rabbit anti-GFAP (1:1000) for staining glia. In the next day, cells are incubated with FITC-labeled anti-mouse and TRITC-labeled anti-rabbit antibodies (1:1000) for about 1 hour at room temperature. After fixing and staining the cells, nuclei (360/400 nm excitation and 465/300 nm emission filters), neuron (475/350 nm excitation and 535/400 nm emission filters) and glial cell (535 nm excitation and 610 nm emission filters) images are collected using the ImageExpress Micro automatic fluorescent microscopy system (Molecular Devices, Sunnyvale, Calif.) employing a Nikon 10× Plan Fluor objective and Cool Snap HQ CCD camera. The Neurite Outgrowth module in the MetaMorph Imaging software can be used to automatically count total cell number, number of neuron cells, and the extent of neurite outgrowth.
The neurite outgrowth observed for untreated cells is set to 100% response. Treatment of cells with compounds prior to and concomitantly with Aβ1-42 gave a neuroprotective effect with neurite outgrowth maintained or enhanced relative to untreated cells.

[3] = test system: Patients with mild-to-moderate Alzheimer's disease; conditions: cited from earlier work
[4] = test system: primary rat cortical neurons; conditions: comparable to that evoked by BDNF; cited from earlier work
[5] = Homo sapiens, SK-N-SH, percent maximal JC-1 ratio normalized to peak value for 10 μM dimebolin

Cc1ccc(/C=C/c2cccc3c4c([nH]c23)C2CCN(CC2)C4)cn1 [Example 1, 7-[(E)-2-(6-methylpyridin-3-yl)vinyl]-3,4,5,6-tetrahydro-1H-2,5-ethanoazepino[4,3-b]indole]
Emax [1, 5]: 139%
EC50 ([1]; Homo sapiens, SK-N-SH): 6.02 µM
latency to reenter the dark side (punishment side) (mice): significantly increased; also recorded: concentration-dependent improvement
% Attenuation Effect of 5 μM Aβ 1-42 [2]: 34%
Emax at 3 µM [2]: 106%

Cc1ccc(C#Cc2cccc3c4c([nH]c23)C2CCN(CC2)C4)cn1 [Example 3, 7-[(6-methylpyridin-3-yl)ethynyl]-3,4,5,6-tetrahydro-1H-2,5-ethanoazepino[4,3-b]indole]
Emax [1, 5]: 188%
EC50 ([1]; Homo sapiens, SK-N-SH): 4.36 µM
latency to reenter the dark side (punishment side) (mice): significantly increased; also recorded: concentration-dependent improvement
% Attenuation Effect of 5 μM Aβ 1-42 [2]: 43%
Emax at 3 µM [2]: 115%

Cc1ccc(/C=C/c2ccc3[nH]c4c(c3c2)CN2CCC4CC2)cn1 [Example 8, 9-[(E)-2-(6-methylpyridin-3-yl)vinyl]-3,4,5,6-tetrahydro-1H-2,5-ethanoazepino[4,3-b]indole]
Emax [1, 5]: 162%
EC50 ([1]; Homo sapiens, SK-N-SH): 4.05 µM
% Attenuation Effect of 5 μM Aβ 1-42 [2]: 49%
Emax at 0.3 µM [2]: 121%

c1cnc2ccc(-c3cccc4c5c([nH]c34)C3CCN(CC3)C5)cc2c1 [Example 27, 7-quinolin-6-yl-3,4,5,6-tetrahydro-1H-2,5-ethanoazepino[4,3-b]indole]
Emax [1, 5]: 133%
EC50 ([1]; Homo sapiens, SK-N-SH): 6.39 µM
% Attenuation Effect of 5 μM Aβ 1-42 [2]: 38%
Emax at 0.3 µM [2]: 109%

Cc1ccc(CCc2cccc3c4c([nH]c23)CN2CCC4CC2)cn1 [Example 33, 9-[2-(6-methylpyridin-3-yl)ethyl]-3,4,5,10-tetrahydro-1H-2,5-ethanoazepino[3,4-b]indole]
Emax [1, 5]: 197%
EC50 ([1]; Homo sapiens, SK-N-SH): 6.01 µM

C(=C\c1cccc2c3c([nH]c12)C1CCN(CC1)C3)/c1cccnc1 [Example 34, 7-[(E)-2-pyridin-3-ylvinyl]-3,4,5,6-tetrahydro-1H-2,5-ethanoazepino[4,3-b]indole]
Emax [1, 5]: 109%
EC50 ([1]; Homo sapiens, SK-N-SH): 6.3 µM

Cc1ccc(/C=C/c2cccc3c4c([nH]c23)C2CCCN(C4)C2)cn1 (stereo not drawn) [Example 35, 8-[(E)-2-(6-methylpyridin-3-yl)vinyl]-1,3,4,5,6,7-hexahydro-2,6-methanoazocino[4,3-b]indole]
Emax [1, 5]: 213%
EC50 ([1]; Homo sapiens, SK-N-SH): 7.28 µM

Cc1ccc(/C=C/c2cccc3c2NC2C4CCN(CC4)CC32)cn1 (stereo not drawn) [Example 36, (cis)-7-[(E)-2-(6-methylpyridin-3-yl)vinyl]-3,4,5,5a,6,10b-hexahydro-1H-2,5-ethanoazepino[4,3-b]indole]
JC-1 max % ([1]; percent maximal JC-1 ratio normalized to peak value for 10 μM dimebolin): 196%
EC50 [1]: 6.89 µM

Cc1ccc(-c2cccc3c4c([nH]c23)C2CCN(CC2)C4)cn1 [Example 37, 7-(6-methylpyridin-3-yl)-3,4,5,6-tetrahydro-1H-2,5-ethanoazepino[4,3-b]indole]
Emax [1, 5]: 179%
EC50 ([1]; Homo sapiens, SK-N-SH): 8.66 µM

c1cc(-c2cncnc2)c2[nH]c3c(c2c1)CN1CCC3CC1 [Example 38, 7-(pyrimidin-5-yl)-3,4,5,6-tetrahydro-1H-2,5-ethanoazepino[4,3-b]indole]
Emax [1, 5]: 76%
EC50 ([1]; Homo sapiens, SK-N-SH): 10.5 µM

c1cncc(-c2cccc3c4c([nH]c23)C2CCN(CC2)C4)c1 [Example 39, 7-(pyridin-3-yl)-3,4,5,6-tetrahydro-1H-2,5-ethanoazepino[4,3-b]indole]
Emax [1, 5]: 113%
EC50 ([1]; Homo sapiens, SK-N-SH): 10.3 µM

c1cc(-c2ccncc2)c2[nH]c3c(c2c1)CN1CCC3CC1 [Example 40, 7-(pyridin-4-yl)-3,4,5,6-tetrahydro-1H-2,5-ethanoazepino[4,3-b]indole]
Emax [1, 5]: 92%
EC50 ([1]; Homo sapiens, SK-N-SH): 8.99 µM

c1ccc2ncc(-c3cccc4c5c([nH]c34)C3CCN(CC3)C5)cc2c1 [Example 41, 7-(quinolin-3-yl)-3,4,5,6-tetrahydro-1H-2,5-ethanoazepino[4,3-b]indole]
Emax [1, 5]: 171%
EC50 ([1]; Homo sapiens, SK-N-SH): 3.68 µM

Cc1ccc2c(c1)c1c(n2CCc2ccc(C)nc2)CCN(C)C1 [dimebolin, 2,3,4,5-tetrahydro-2,8-dimethyl-5-[2-(6-methyl-3-pyridinyl)ethyl]-1H-pyrido[4,3-b]indole]
clinical course of disease, improvement over baseline for ADAS-Cog ([3]; 20 mg three times a day (60 mg/day)): significant improvement
most frequent adverse event ([3]; recently reported clinical studies): dry mouth
neurite outgrowth [4]: increase neurite outgrowth
